Tests used:
[1] = tested on: distal caudal fin tissue of a zebrafish; assay: Tissue regeneration experiment of distal caudal fin of zebrafish (wound model); assay type: in vivo; conditions: 3 μM tacrolimus in culture solution, adult zebrafish, 1, 3 and 5 days after amputation, vs DMSO control
Description: 1. Experimental fish lines and culturing method are as follows: a wild-type (AB) fish was used as an experimental fish, stored in a flowing water tank at 28±0.5° C. with a pH=7±0.5, a conductivity of an aquaculture water was […]; and a photoperiod was 14 h of lighting and 10 h of darkness. Fresh sandworms were fed three times a day. Raising was conducted in accordance with the guidelines of the Ministry of Science and Technology of the People's Republic of China on the cultivation of experimental animals (2006); all fishes were kept under standard laboratory conditions. 2. Wound model construction is as follows: an adult zebrafish was lightly anesthetized in an anesthetic supplemented with tricaine and placed in a 1.5 g/100 mL agarose tank. A tissue with a length of 2-3 joints and a width of two fin rays on caudal fin surface was excavated using a scalpel blade; a hole was exposed on the caudal fin surface to form a damaged tissue containing a proximal wound and a distal wound. Proximal regenerative tissues were daily removed to prevent the hole from being filled. A regeneration status of the caudal fin was imaged and recorded using a Zeiss Discovery […] microscope (Carl Zeiss, Germany). 3. […]

[2] = tested on: calcineurin; assay: Determination of calcineurin activity in caudal fin tissues (malachite green, RII peptide substrate); assay type: in vivo, zebrafish; conditions: 3 μM tacrolimus in culture solution, vs DMSO control group non-regenerative tissues
Description: 4. […] Free phosphate in the sample was removed, the phosphorylated RII peptide was added, and the sample was incubated at 30° C. for 30 min. Malachite green as a phosphate indicator was added, and the amount of free phosphate in the sample was determined using a SpectraMax® iD3 multi-mode microplate reader (Molecular Devices, USA). The calcineurin activity was normalized to a total protein concentration.

[3] = in the human body; cited from earlier work
[4] = cited from earlier work

SMILES: C=CC[C@@H]1/C=C(\C)C[C@H](C)C[C@H](OC)[C@H]2O[C@@](O)(C(=O)C(=O)N3CCCC[C@H]3C(=O)O[C@H](/C(C)=C/[C@@H]3CC[C@@H](O)[C@H](OC)C3)[C@H](C)[C@@H](O)CC1=O)[C@H](C)C[C@@H]2OC [tacrolimus, Tacrolimus]
- regeneration of non-regenerative distal caudal fin tissue [1]: the distal tissue regeneration was initiated
- calcineurin activity in tissue, normalized to total protein concentration [2]: lower than that of the non-regenerative tissues
- half-life [3]: 10.7 h
- stability in aqueous solution [4]: extremely-unstable in aqueous solution and can be rapidly degraded

Source: US11986462B2, “Use of tacrolimus in preparation of medicament for initiating tissue regeneration function” (priority 2020, dated 2024)
